Values joined by “and” are separate entries in the source; they are usually repeats but may differ in a detail not shown here. Equal values may be shown once. Active and inactive are the calls of the source. The rule behind the calls is not given here.

In this assay the test system is HEK-293T NF-kB luciferase reporter, luminescence counterscreen. Kind of assay: NF-kB reporter suppression in HEK-293T cells – luminescence, B-cell screen hits, counter-screen for BCR NF-kB inhibitor project, dose response (AID 489022).
For the molecule `COc1ccc(OC)c(S(=O)(=O)Nc2ccc(-c3ccc4nnc(C)n4n3)cc2)c1`, the IC50 is 32.2 µM (inactive). The same measure for `Cc1cc(C)c(CN2CCN(C(=O)Cn3cnc4c(NCc5ccccc5)ncnc43)CC2)c(C)c1`: 0.51 µM; for `COc1ccc(S(=O)(=O)Nc2cc3c(C(C)=O)c(C)oc3c3ccccc23)cc1`: > 80 µM (inactive); for `COC(=O)[C@@H]1Cc2c([nH]c3ccccc23)C(C)(C)N1C(=O)CCl`: 36 µM (inactive).

Turning to `Fc1ccc(C2=Nn3c(nnc3-c3n[nH]c4c3CCC4)SC2)cc1`, the IC50 is 16.7 µM. The same measure for `COc1ccc(-n2c(-c3ccc(Br)cc3)c[n+]3c2CCc2ccccc2-3)cc1`: 3.96 µM; for `CC1=CC(C)(C)Nc2ccc(OC(=O)C(C)N3C(=O)c4ccccc4C3=O)cc21` (stereo not given): 11.5 µM. The same measure for `CC1CCN(C(=O)CCCOc2cc(=O)n(C)c3ccccc23)CC1`: > 80 µM (inactive). The same measure for `COc1ccc(-n2c(-c3ccc(Cl)cc3)c[n+]3c2CCc2ccccc2-3)cc1`: 3.18 µM; for `O=c1cccc2c1c1cc[nH]c3ccc(=O)n2c31`: 2.93 µM; for `COc1ccc(/C=C2\SC(=S)N(CCC(=O)Nc3cccc(O)c3)C2=O)cc1`: > 80 µM (inactive).

Take `O=C(NNC(=O)c1ccccc1O)c1ccc(Cl)c(S(=O)(=O)N2CCc3ccccc32)c1`: the IC50 was 0.47 µM. The result for `COc1ccc(NS(=O)(=O)c2cc(NC(=O)c3cc(=O)c4ccccc4o3)ccc2OC)cc1` reads > 80 µM (inactive); that for `NC(=O)C1CCN(C(=O)COc2ccc3ccccc3c2Br)CC1`, > 80 µM (inactive); that for `Cc1c(CCC(=O)N2CCC(C(=O)O)(c3ccccc3)CC2)c(=O)oc2cc3oc4c(c3cc12)CCCC4`, 21.6 µM (inactive). The result for `CC1CCc2c(sc3nc(C(C)(C)C)nc(N4CCN(C(=O)CCl)CC4)c23)C1` (stereo not given) reads 30.6 µM (inactive). For the molecule `COc1ccc(/C=C2\SC(=S)N(CCC(=O)Nc3ccc(C(=O)O)cc3)C2=O)cc1OC`, the IC50 is > 80 µM (inactive).

For `COc1cccc(-c2noc(CCC(=O)NCCc3ccccc3)n2)c1`, the IC50 was 75.4 µM (inactive). Consider `Cc1ccc(-c2nn3c(C)nnc3c3ccccc23)cc1S(=O)(=O)N1CCN(CCO)CC1`, for which the IC50 was 22.4 µM (inactive). Regarding `COc1cc(/C=N/Nc2nc(Nc3ccccc3)nc(N3CCOCC3)n2)ccc1OC(=O)c1ccco1`, the IC50 was > 80 µM (inactive).

For the molecule `CCC(C)N1C(=O)/C(=C/c2c(NCCCOC(C)C)nc3c(C)cccn3c2=O)SC1=S` (stereo not given), the IC50 was > 80 µM (inactive). The same measure for `CCc1ccc2[nH]c3nc(N/N=C/c4cccc(O)c4)nnc3c2c1`: > 80 µM (inactive). Consider `C[C@H]1CCC/C=C/[C@@H]2C[C@H](O)C[C@H]2[C@H](O)/C=C/C(=O)O1`, for which the IC50 is 0.42 µM and 0.52 µM.

Turning to `COc1ccc2nc(C)cc(Sc3nc4ccccc4s3)c2c1`, the IC50 is 11.2 µM. The same measure for `N=c1ccn(Cc2ccccc2Cl)cc1`: 21.3 µM (inactive); for `CSc1ccc(-c2nc(CSCC(=O)NC3CC3)c(C)o2)cc1`: 37.7 µM (inactive).

As for `COc1ccc(C=C(C(C)=O)C(C)=O)cc1OC`, the IC50 was > 80 µM (inactive). The same measure for `CCCC(=O)Nc1ccc(Sc2ccc([N+](=O)[O-])cc2)cc1`: 8.35 µM; for `Cc1ccccc1-c1cc(C(=O)Nc2sc(C(=O)OC(C)C)c(C)c2C#N)c2ccccc2n1`: 0.35 µM. In the case of `COc1ccc(C(C(=O)NC2CCCCC2)N(C(=O)CCl)c2ccc(Cl)cc2)cc1` (stereo not given), the IC50 was 25.1 µM (inactive).

Regarding `O=C(CCCN1C(=O)/C(=C/c2ccccc2Cl)SC1=S)NNC(=O)c1ccncc1`, the concentration for half-maximal inhibition (IC50) is 12.7 µM. The result for `COc1ccc(/C=C/c2ccccc2)cc1[C@H]1[C@H]2C=CC[C@@H](C)[C@@H]2C(=O)N1Cc1ccccc1` reads > 80 µM (inactive).

For `COc1cccc(/C=C2/SC(=S)N(CCCC(=O)Nc3ccc(O)cc3)C2=O)c1`, the IC50 is 50.6 µM (inactive). On to `O=C(CCCN1C(=O)/C(=C/c2ccccc2Cl)SC1=S)NNC(=O)c1ccc(Cl)cc1Cl`, for which the IC50 was > 80 µM (inactive). The same measure for `COc1ccc(C(=O)Nc2nnc(Cc3cccs3)s2)cc1OC`: > 80 µM (inactive); for `CC(C)(C)c1ccc(-c2noc(CCC(=O)Nc3cccnc3)n2)cc1`: 0.55 µM.

As to `CCN(CC)CCOC(=O)c1ccc(NC(=O)CCCN2C(=O)S/C(=C/c3ccc(OC)cc3)C2=S)cc1`, the IC50 is 11.6 µM. The result for `CCCN1C(=O)/C(=C/c2c(N3CCNC(=O)C3CC(=O)OCC)nc3c(C)cccn3c2=O)SC1=S` (stereo not given) reads 14.5 µM; that for `Cc1c(CC(=O)NCCCC(=O)O)c(=O)oc2cc3c(cc12)CCC(C)(C)O3`, 3.39 µM; that for `CN(C)C(=O)CCc1nc(-c2ccc(C(C)(C)C)cc2)no1`, 51.8 µM (inactive). The same measure for `CNC(=O)CCc1nc(-c2ccc(C(C)(C)C)cc2)no1`: 56.4 µM (inactive).

Consider `COc1ccc(NC(=O)CN(C)C(=O)C2(c3ccccc3)CCCC2)cc1`, for which the IC50 was 21.3 µM (inactive).

As to `Cn1c(=O)n(C)c2cc(NC(=O)CSc3nnc(-c4ccccc4O)n3-c3ccccc3)ccc21`, the concentration for half-maximal inhibition (IC50) is 18.2 µM. As to `O=C(Nc1cccc(Br)c1)c1ccc2c(c1)SC1=NS(=O)(=O)CCN12`, the IC50 is 10.5 µM. The same measure for `O=C(CN1C(=O)c2ccccc2S1(=O)=O)c1ccc(OC(F)F)cc1`: 5.26 µM. The same measure for `COc1cccc(Cn2nnc(C(=O)Nc3cc(Cl)ccc3OC)c2N)c1`: > 80 µM (inactive); for `Cn1c(=O)n(C)c2cc(C(=O)Nc3ccc4c(c3)OCO4)ccc21`: > 80 µM (inactive); for `COc1ccc(Cc2nc(-c3ccc(NC(=O)c4cccnc4)cc3)no2)cc1`: > 80 µM (inactive). With `CC1=CC(C)(C)Nc2ccc(OC(=O)C(Cc3ccccc3)N3C(=O)c4ccccc4C3=O)cc21` (stereo not given), the IC50 is > 80 µM (inactive). The same measure for `CCOC(=O)N1CCN(CC(=O)Nc2ccc([N+](=O)[O-])cc2C(=O)Nc2ccccc2F)CC1`: 29.4 µM (inactive). The same measure for `CNC(=O)c1cccn(Cc2ccc(C(F)(F)F)cc2)c1=O`: 35.5 µM (inactive); for `Cc1ccc(/C=C2\SC(=S)N(CCCC(=O)NNC(=O)c3ccccc3O)C2=O)cc1`: 5.48 µM; for `COc1ccccc1/C=C1\SC(=S)N(CCC(=O)Nc2cccc(O)c2)C1=O`: > 80 µM (inactive). The same measure for `Cc1ccc(-c2nn3c(C)nnc3c3ccccc23)cc1S(=O)(=O)NCCN1CCOCC1`: 32 µM (inactive).

As for `COc1ccc(-c2ccc(OC)c([C@H]3[C@H]4C=CC[C@@H](C)[C@@H]4C(=O)N3Cc3ccccc3)c2)cc1C`, the IC50 was > 80 µM (inactive). The same measure for `Cc1c(CCC(=O)N2CCC[C@H]2C(=O)O)c(=O)oc2cc3oc4c(c3cc12)CCCC4`: 8.43 µM; for `CC1=CC(C)(C)Nc2ccc(OC(=O)CN3C(=O)CCC3=O)cc21`: 11.1 µM; for `CCOC(=O)C1CCN(c2ncnc3c2cnn3-c2ccc(Cl)cc2)CC1`: 1.25 µM.

On to `COc1ccccc1/C=C1\SC(=S)N(CCC(=O)NC2=NCCS2)C1=O`, for which the IC50 was > 80 µM (inactive).

On to `O=C(c1cc2nc(-c3ccccc3)cc(-c3ccccc3)n2n1)N1CCN(C(=O)c2ccco2)CC1`, for which the IC50 was 11 µM.

For the origin of these results see PubChem BioAssay AID489022 (Sanford-Burnham Center for Chemical Genomics, 2010).
